Data set [1] can be described thus: Solubility of ultraviolet absorbent in N,N-dimethylacetamide at 25° C. Type of data set: physicochemical.
Data set [2] can be described thus: Molar extinction coefficient of ultraviolet absorbent in 20 mg/L toluene solution. Type of data set: physicochemical. Here is the method:
(manufactured by JASCO Corporation) Measured Concentration: 20 mg/L Solvent: toluene

SMILES strings stand for the structures.

On to `CC(C)(C)CC(C)(C)c1cc(Cc2cc(C(C)(C)CC(C)(C)C)cc(-n3nc4ccccc4n3)c2O)c(O)c(-n2nc3ccccc3n2)c1` [LA31, 2,2′-methylenebis[6-(2H-benzotriazole-2-yl)-4-(1,1,3,3-tetramethylbutyl)phenol]], for which, in data set [1], the “Solubility at 25° C. with respect to DMAc” value (“Solubility” below) is recorded as above 10 g/100 g-DMAc. For the same molecule, in data set [2], the “Molar extinction coefficient 360 nm” value is listed as 27,300 L/mol · cm, the “Molar extinction coefficient 370 nm” value is recorded as 19,800 L/mol · cm, the “Molar extinction coefficient 380 nm” value is listed as 9,000 L/mol · cm and the “Molar extinction coefficient 390 nm” value is 1,400 L/mol · cm. In data set [2], the “Molar extinction coefficient 400 nm” value was below 50 L/mol/cm and the “Molar extinction coefficient 420 nm” value is below 50 L/mol/cm.
As for `CCCCC(CC)C(=O)OCCOc1ccc(-c2nc(-c3ccccc3)nc(-c3ccccc3)n2)c(O)c1` (stereo not shown) [LA46, 2-(4,6-diphenyl-1,3,5-triazine-2-yl)-5-[2-(2-ethylhexanoyloxy)ethoxy]phenol], the “Solubility” value in data set [1] is above 10 g/100 g-DMAc. Also, in data set [2], the “Molar extinction coefficient 360 nm” value stood at 10000 L/mol/cm, the “Molar extinction coefficient 370 nm” value was 3,000 L/mol · cm, the “Molar extinction coefficient 380 nm” value came to 160 L/mol/cm and the “Molar extinction coefficient 390 nm” value was below 50 L/mol/cm. For the same molecule, in data set [2], the “Molar extinction coefficient 400 nm” value was below 30 L/mol/cm and the “Molar extinction coefficient 420 nm” value was below 30 L/mol/cm.
For `CC(C)(C)CC(C)(C)c1ccc(O)c(-n2nc3ccccc3n2)c1` [Sumisorb 340, 2-(2-hydroxy-5-tert-octylphenyl)benzotriazole], the “Solubility” value in data set [1] was above 10 g/100 g-DMAc. In addition, in data set [2], the “Molar extinction coefficient 360 nm” value is reported as 13,100 L/mol · cm, the “Molar extinction coefficient 370 nm” value is recorded as 7,700 L/mol · cm, the “Molar extinction coefficient 380 nm” value is 2,200 L/mol · cm and the “Molar extinction coefficient 390 nm” value is 320 L/mol/cm. Moreover, in data set [2], the “Molar extinction coefficient 400 nm” value was below 50 L/mol/cm and the “Molar extinction coefficient 420 nm” value was below 50 L/mol/cm.
As to `CCC(C)(C)c1cc(-n2nc3ccccc3n2)c(O)c(C(C)(C)CC)c1` [Sumisorb 350, 2-(2-hydroxy-3,5-di-tert-pentylphenyl)benzotriazole], the “Solubility” value in data set [1] is above 10 g/100 g-DMAc. Moreover, in data set [2], the “Molar extinction coefficient 360 nm” value is recorded as 13,900 L/mol · cm, the “Molar extinction coefficient 370 nm” value is recorded as 9,700 L/mol · cm, the “Molar extinction coefficient 380 nm” value was 4,800 L/mol · cm and the “Molar extinction coefficient 390 nm” value is reported as 1,200 L/mol · cm. In data set [2], the “Molar extinction coefficient 400 nm” value was determined as 210 L/mol/cm and the “Molar extinction coefficient 420 nm” value is below 50 L/mol/cm.
